Assay results as given in patent US20060135515A1, “Heterocyclic amides and their use treating thromboembolic diseases and tumors” (priority 2002, published 2006).
pIC50: −log10 of the molar value.

Key:
TF/FVIla = TF/FVIla (Homo sapiens, UniProt P08709); assay: Inhibition of TF/factor VIIa (TF/FVIIa-IC50); format: biochemical
Excerpt: The inhibition of factor VIIa by the compounds according to the invention and the measurement of the anticoagulant and antithrombotic activity can be determined by conventional in-vitro or in-vivo methods. A conventional method for the measurement of the inhibition of factor VIIa is described, for example, by H. F. Ronning et al. in Thrombosis Research 1996, 84, 73-81.

FXa = FXa (Homo sapiens, UniProt P00742); assay: Inhibition of factor Xa (FXa-IC50); format: biochemical
Sequence of FXa (P00742 235-488 limits assumed): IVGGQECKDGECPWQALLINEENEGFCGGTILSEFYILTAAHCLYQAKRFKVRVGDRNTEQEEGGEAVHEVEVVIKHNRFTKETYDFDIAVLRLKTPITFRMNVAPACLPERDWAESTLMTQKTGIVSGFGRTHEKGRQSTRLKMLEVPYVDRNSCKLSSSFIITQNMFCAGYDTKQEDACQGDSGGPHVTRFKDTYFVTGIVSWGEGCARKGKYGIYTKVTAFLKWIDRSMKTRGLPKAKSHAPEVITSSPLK
Sequence of FXa (P00742 41-179 partner limits assumed): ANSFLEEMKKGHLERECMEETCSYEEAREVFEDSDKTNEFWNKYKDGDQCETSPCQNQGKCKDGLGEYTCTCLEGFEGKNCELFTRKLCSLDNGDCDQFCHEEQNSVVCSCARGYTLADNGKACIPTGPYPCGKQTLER
Excerpt: The inhibition of factor Xa by the compounds according to the invention and the measurement of the anticoagulant and antithrombotic activity can be determined by conventional in-vitro or in-vivo methods. A suitable method is described, for example, by J. Hauptmann et al. in Thrombosis and Haemostasis 1990, 63, 220-223.
The inhibition of factor Xa can be measured, for example by the method of T. Hara et al. in Thromb. Haemostas. 1994, 71, 314-319.

Sequence of TF/FVIla (P08709 213-466 limits assumed): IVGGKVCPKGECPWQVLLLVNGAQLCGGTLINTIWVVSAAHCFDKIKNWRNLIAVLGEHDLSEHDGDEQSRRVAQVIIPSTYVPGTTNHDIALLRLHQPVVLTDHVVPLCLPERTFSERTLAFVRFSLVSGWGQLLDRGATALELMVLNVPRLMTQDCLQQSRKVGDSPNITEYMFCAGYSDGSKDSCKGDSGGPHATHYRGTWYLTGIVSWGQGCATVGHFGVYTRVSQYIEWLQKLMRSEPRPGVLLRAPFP
Sequence of TF/FVIla (P08709 61-212 partner limits assumed): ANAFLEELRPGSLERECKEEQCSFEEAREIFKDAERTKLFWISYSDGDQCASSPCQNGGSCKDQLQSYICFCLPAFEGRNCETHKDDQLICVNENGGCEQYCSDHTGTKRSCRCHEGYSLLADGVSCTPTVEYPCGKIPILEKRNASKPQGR
Sequence of TF/FVIla (P13726 33-295 partner): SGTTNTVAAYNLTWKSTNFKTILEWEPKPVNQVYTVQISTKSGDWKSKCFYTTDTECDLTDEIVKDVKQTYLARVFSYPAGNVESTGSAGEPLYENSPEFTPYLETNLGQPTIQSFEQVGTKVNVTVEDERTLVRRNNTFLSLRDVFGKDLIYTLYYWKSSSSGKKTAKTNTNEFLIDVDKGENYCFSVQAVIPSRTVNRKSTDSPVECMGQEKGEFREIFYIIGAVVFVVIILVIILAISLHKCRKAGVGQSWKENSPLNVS

pIC50 (TF/FVIla) | pIC50 (FXa) | SMILES
6.74 | 6.72 | CCCC(NC(=O)Nc1ccc(Cl)s1)C(=O)Nc1ccc(N2CCOCC2=O)cc1 (stereo not shown) [Compound A1, N-[4-(3-oxomorpholin-4-yl)-phenyl]-2-[3-(5-chlorothiophen-2-yl)ureido]valeramide]
7.18 | 7.18 | CCC[C@@H](NC(=O)Nc1ccc(Cl)s1)C(=O)Nc1ccc(N2CCOCC2=O)c(C)c1 [Compound A2, (R)-2-[3-(5-chlorothiophen-2-yl)ureido]-N-[4-(3-oxomorpholin-4-yl)-3-methylphenyl]valeramide]
